Broadly, the inhibition is how much of the control response was suppressed. As a reminder, the CC50 is the concentration that lowers cell viability or growth by half. High values mean lower toxicity to the cells, low ones greater toxicity to the cells. As a reminder, the EC50 is the concentration at which the effect is half-maximal. The term IC50 denotes the concentration that inhibits the measured activity by half. Lower therefore signals greater potency.

These results are taken from ChEMBL document CHEMBL2021775, “Discovery of flavonoid derivatives as anti-HCV agents via pharmacophore search combining molecular docking strategy” (Eur J Med Chem, 2012).

Structures are written as SMILES. The source made the active and inactive calls. No cut-off for these calls is given here.

The test system of data set [1] is Hepatitis C virus. Nature of the data set: Antiviral activity against HCV JFH-1 J399EM infected in Human Huh7.5.1 cells assessed as suppression of viral replication at 50 uM after 72 hrs by EGFP assay. In kind it is functional. As to conditions: for inhibition: Hepacivirus hominis, Huh-7; for inhibition at 50 µM: Huh-7, 72 h.
Data set [2] is described as follows: Cytotoxicity against human Huh7.5.1 cells by MTT assay. In kind it is cell-based, Huh-7.
Data set [3] has as its system Hepatitis C virus. In words: Antiviral activity against HCV JFH-1 J399EM infected in Human Huh7.5.1 cells assessed as suppression of viral replication after 72 hrs by EGFP assay. In kind it is functional, organism-based, Hepacivirus hominis. As to conditions: Huh-7, 72 h.
In data set [4] the test system is Hepatitis C virus. In words: Antiviral activity against HCV genotype 2a […] in Human Huh7.5.1 replicon cells assessed as suppression of viral replication after 72 hrs by luciferase reporter gene assay. In kind it is functional, organism-based, Hepacivirus hominis. As to conditions: Huh-7, 72 h. In general terms: A replicon is a self-replicating genome or part of one, used to study replication in cells.

The test system of data set [5] is Hepatitis C virus. Nature of the data set: Inhibition of HCV 1b NS5B polymerase at 100 uM. Further details: species or system Hepatitis C virus subtype 1b.
Data set [6] deals with Hepatitis C virus. In words: Inhibition of HCV 1b NS5B polymerase. More on the design: species or system Hepatitis C virus subtype 1b.

Regarding `O=c1c(O)c(-c2cccc(O)c2O)oc2ccc(O)cc12`, the inhibition entry in the data set with Hepatitis C virus [1] was “inactive”. The same compound came in with a CC50 in data set [2] greater than 50 µM.
With `O=c1c(O)c(-c2cc(O)c(O)cc2O)oc2ccc(O)cc12`, the inhibition at 50 µM in the data set with Hepatitis C virus [1] came to 31.1%. Besides, the CC50 in data set [2] is greater than 50 µM.
Consider `O=c1c(O)c(-c2ccc(O)cc2)oc2cccc(O)c12`, for which the EC50 in the data set on Hepatitis C virus [3] was found to be 12.7 µM. This compound registered a CC50 in data set [2] greater than 50 µM.
On to `O=c1cc(-c2ccc(O)c(O)c2)oc2c(O)c(O)ccc12`, for which, in the data set with Hepatitis C virus [3], the EC50 was found to be 23.3 µM. For the same compound, the CC50 in data set [2] is greater than 50 µM.
Take `O=c1c(O)c(-c2ccccc2)oc2cccc(O)c12`: the inhibition at 50 µM in the data set with Hepatitis C virus [1] was 83.7%. Moreover, the CC50 in data set [2] was greater than 50 µM.
Taken in the same sequence, the figures for `O=c1cc(-c2ccccc2O)oc2c(O)c(O)ccc12` were 51.9% and greater than 50 µM.
For `O=c1cc(-c2cc(O)c(O)c(O)c2)oc2cc(O)ccc12`, the EC50 in the data set on Hepatitis C virus [3] worked out at 38.5 µM. In data set [2], the CC50 is greater than 50 µM.
Take `O=c1c(O[C@H]2O[C@@H](CO)[C@@H](O)[C@@H](O)[C@@H]2O)c(-c2ccc(O)c(O)c2)oc2cc(O)cc(O)c12`: the inhibition entry in the data set on Hepatitis C virus [1] is “inactive”. Besides, the CC50 in data set [2] is greater than 50 µM.
In the case of `O=C1c2cccc(O)c2C(=O)c2c(O)cc(CO)cc21` [ALOE-EMODIN], the EC50 with Hepatitis C virus [3] is 20.8 µM. Further, the CC50 in data set [2] was greater than 50 µM.
`O=c1cc(-c2ccc(O)c(-c3c(O)cc(O)c4c(=O)cc(-c5ccc(O)cc5)oc34)c2)oc2cc(O)cc(O)c12` [AMENTOFLAVONE]: the inhibition entry in the data set on Hepatitis C virus [1] was “inactive”. Further, the CC50 in data set [2] is greater than 50 µM.
Regarding `O=c1cc(-c2ccc(O)cc2)oc2cc(O)cc(O)c12` [APIGENIN], the values for the EC50 in the data set on Hepatitis C virus [4] and in the data set on Hepatitis C virus [3] were 12 µM and 7.9 µM, respectively. Besides, in data set [2], the CC50 is greater than 50 µM.
In the case of `O=c1cc(-c2ccccc2)oc2cc(O)c(O)c(O)c12` [BAICALEIN], in the data set on Hepatitis C virus [3], the EC50 was 33.9 µM. For the same compound, the CC50 in data set [2] was greater than 50 µM.
With `O=c1cc(-c2ccccc2)oc2cc(O)cc(O)c12` [CHRYSIN], the inhibition at 100 µM with Hepatitis C virus [5] was 30%. For the same compound, in the data set on Hepatitis C virus [1], the inhibition at 50 µM turned out to be 51%. This compound registered a CC50 in data set [2] greater than 50 µM.
As to `COc1c(O)cc2oc(-c3ccc(O)c(O)c3)cc(=O)c2c1O` [EUPAFOLIN], the EC50 with Hepatitis C virus [3] came out at 33.1 µM. The CC50 in data set [2] was greater than 50 µM.
Regarding `O=c1c(O)c(-c2ccc(O)c(O)c2)oc2cc(O)ccc12` [FISETIN], the inhibition at 50 µM in the data set with Hepatitis C virus [1] is 26.4%. Besides, the CC50 in data set [2] was greater than 50 µM.
In the case of `O=c1c(O)c(-c2ccccc2)oc2cc(O)cc(O)c12` [GALANGIN], the inhibition at 50 µM with Hepatitis C virus [1] was 46.9%. Further, the CC50 in data set [2] is greater than 50 µM.
On to `O=c1cc(-c2ccc(O)c(O)c2)oc2cc(O[C@@H]3O[C@H](CO)[C@@H](O)[C@H](O)[C@H]3O)cc(O)c12` [GALUTEOLIN], for which the inhibition result in the data set with Hepatitis C virus [1] was “inactive”. Further, the CC50 in data set [2] is greater than 50 µM.
Turning to `O=c1c(-c2ccc(O)cc2)coc2cc(O)cc(O)c12` [GENISTEIN], the EC50 in the data set with Hepatitis C virus [3] amounted to 14.4 µM. Also, the CC50 in data set [2] is greater than 50 µM.
Taken in the same sequence, the figures for `O=c1c(O)c(-c2ccc(O)c(O)c2)oc2c(O)c(O)cc(O)c12` [GOSSYPETIN] were 47 µM and greater than 50 µM.
Take `COc1c(O)cc2oc(-c3ccc(O)cc3)cc(=O)c2c1O` [HISPIDULIN]: the EC50 with Hepatitis C virus [3] amounted to 36.3 µM. In data set [2], the CC50 is greater than 50 µM.
`O=C(/C=C/c1ccc(O)cc1)c1ccc(O)cc1O` [ISOLIQUIRITIGENIN]: the EC50 in the data set with Hepatitis C virus [3] is 36.1 µM. In data set [2], this compound returned a CC50 greater than 50 µM.
Consider `O=c1cc(-c2ccc(O)c(O)c2)oc2cc(O)c([C@@H]3O[C@H](CO)[C@@H](O)[C@H](O)[C@H]3O)c(O)c12` [ISOORIENTIN], for which the inhibition entry with Hepatitis C virus [1] was “inactive”. In data set [2], this compound returned a CC50 greater than 50 µM.
In the case of `COc1cc(-c2oc3cc(O)cc(O)c3c(=O)c2O)ccc1O` [ISORHAMNETIN], in the data set with Hepatitis C virus [1], the inhibition at 50 µM came to 47.3%. The same compound gave a CC50 in data set [2] greater than 50 µM.
Consider `COc1ccc(-c2oc3cc(O)cc(O)c3c(=O)c2O)cc1` [KAEMPFERIDE], for which the inhibition at 50 µM in the data set on Hepatitis C virus [1] was 27.6%. For the same compound, the half-maximal cytotoxic concentration (CC50) in data set [2] is greater than 50 µM.
Take `O=c1c(O)c(-c2ccc(O)cc2)oc2cc(O)cc(O)c12` [KAEMPFEROL]: in the data set on Hepatitis C virus [1], the inhibition at 50 µM amounted to 51.9%. In data set [2], this compound had a CC50 greater than 50 µM.
Consider `O=c1cc(-c2ccc(O)c(O)c2)oc2cc(O)cc(O)c12` [LUTEOLIN], for which the EC50 in the data set on Hepatitis C virus [4] stood at 6.6 µM; in the data set on Hepatitis C virus [3], 4.7 µM. Moreover, the IC50 in the data set on Hepatitis C virus [6] worked out at 1.12 µM. In data set [2], the CC50 is greater than 50 µM.
In the case of `O=c1c(O)c(-c2ccc(O)cc2O)oc2cc(O)cc(O)c12` [MORIN], the inhibition at 50 µM in the data set on Hepatitis C virus [1] stood at 31.1%. Further, the CC50 in data set [2] is greater than 50 µM.
On to `O=c1c(O)c(-c2cc(O)c(O)c(O)c2)oc2cc(O)cc(O)c12` [MYRICETIN], for which the EC50 in the data set on Hepatitis C virus [3] was 46.9 µM. In data set [2], this compound yielded a CC50 greater than 50 µM.
Turning to `O=c1c(O)c(-c2ccc(O)c(O)c2)oc2cc(O)cc(O)c12` [QUERCETIN], the EC50 in the data set on Hepatitis C virus [3] worked out at 19.8 µM. This compound also registered a CC50 in data set [2] greater than 50 µM.
On to `COc1cc(-c2oc3cc(O)cc(O)c3c(=O)c2O)cc(OC)c1O` [SYRINGETIN], for which the EC50 in the data set on Hepatitis C virus [3] was determined as 15.5 µM. In data set [2], this compound showed a CC50 greater than 50 µM.
For the compound `O=c1cc(-c2cc(O)c(O)c(O)c2)oc2cc(O)cc(O)c12` [TRICETIN], the EC50 with Hepatitis C virus [3] stood at 32.2 µM. The compound also returned a CC50 in data set [2] greater than 50 µM.
